Experimental data: ChEMBL document CHEMBL3616440, “Non-basic azolotriazinone MCHR1 antagonists for the treatment of obesity: An empirical brain-exposures-driven candidate selection for in vivo efficacy studies” (Bioorg Med Chem Lett, 2015)

What was measured:
Rattus norvegicus [1] = assay: Toxicity in oral-dosed Sprague-Dawley rat assessed as biliary lesion after 4 days; type: organism-based; settings: in vivo, 96 h
Rattus norvegicus [2] = assay: Prodrug conversion in oral-dosed Sprague-Dawley rat assessed as 3-(4-(6-(4-chlorophenyl)-4-oxothieno[3,2-d]pyrimidin-3(4H)-yl)-2-methoxyphenoxy)-2-hydroxy-2-methylpropanoic acid formation; type: ADME, organism-based; settings: in vivo
Plasma [3] = assay: Fraction unbound in Sprague-Dawley rat plasma assessed as 6-(4-chlorophenyl)-3-(4-(2-hydroxy-2-methylpropoxy)-3-methoxyphenyl)thieno[3,2-d]pyrimidin-4(3H)-one level; type: ADME, cell-free
Rattus norvegicus [4] = assay: Prodrug conversion in oral-dosed Sprague-Dawley rat assessed as 6-(4-chlorophenyl)-3-(4-(2,3-dihydroxy-2-methylpropoxy)-3-methoxyphenyl)thieno[3,2-d]pyrimidin-4(3H)-one formation; type: ADME, organism-based; settings: in vivo
Rattus norvegicus [5] = assay: Antiobesity activity in Sprague-Dawley rat assessed as body weight reduction at 10 mg/kg, po qd after 4 days relative to control; type: functional; settings: 96 h
Brain [6] = assay: Free drug level in Sprague-Dawley rat brain assessed as 6-(4-chlorophenyl)-3-(4-(2-hydroxy-2-methylpropoxy)-3-methoxyphenyl)thieno[3,2-d]pyrimidin-4(3H)-one level at 10 mg/kg, po qd at 20 hrs; type: ADME, organism-based; settings: in vivo
[7] = Ratio of free drug level in brain of Sprague-Dawley rat assessed as 6-(4-chlorophenyl)-3-(4-(2-hydroxy-2-methylpropoxy)-3-methoxyphenyl)thieno[3,2-d]pyrimidin-4(3H)-one level at 10 mg/kg, po to Ki for rat MCHR1; type: ADME, organism-based; settings: in vivo
Brain [8] = assay: Free drug level in Sprague-Dawley rat brain assessed as 6-(4-chlorophenyl)-3-(6-(4-hydroxypiperidin-1-yl)pyridin-3-yl)pyrrolo[1,2-f][1,2,4]triazin-4(3H)-one level at 3 mg/kg, po qd at 20 hrs; type: ADME, organism-based; settings: in vivo
Rattus norvegicus [9] = assay: Antiobesity activity in Sprague-Dawley rat assessed as body weight reduction at 3 mg/kg, po qd after 4 days relative to control; type: functional; settings: 96 h
Plasma [10] = assay: Fraction unbound in Sprague-Dawley rat plasma assessed as 6-(4-chlorophenyl)-3-(6-(4-hydroxypiperidin-1-yl)pyridin-3-yl)pyrrolo[1,2-f][1,2,4]triazin-4(3H)-one level; type: ADME, cell-free
Brain [11] = assay: Free drug level in Sprague-Dawley rat brain assessed as 6-(4-chlorophenyl)-3-(6-(4-hydroxypiperidin-1-yl)pyridin-3-yl)pyrrolo[1,2-f][1,2,4]triazin-4(3H)-one level at 30 mg/kg, po qd at 20 hrs; type: ADME, organism-based; settings: in vivo
Brain [12] = assay: Drug concentration in Sprague-Dawley rat brain assessed as 6-(4-chlorophenyl)-3-(6-(4-hydroxypiperidin-1-yl)pyridin-3-yl)pyrrolo[1,2-f][1,2,4]triazin-4(3H)-one level at 30 mg/kg, po qd at 20 hrs; type: ADME, organism-based; settings: in vivo, read-out: Drug uptake
[13] = Ratio of free drug level in brain of Sprague-Dawley rat assessed as 6-(4-chlorophenyl)-3-(6-(4-hydroxypiperidin-1-yl)pyridin-3-yl)pyrrolo[1,2-f][1,2,4]triazin-4(3H)-one level at 30 mg/kg, po to Ki for rat MCHR1; type: ADME, organism-based; settings: in vivo
Brain [14] = assay: Drug concentration in Sprague-Dawley rat brain assessed as 6-(4-chlorophenyl)-3-(6-(4-hydroxypiperidin-1-yl)pyridin-3-yl)pyrrolo[1,2-f][1,2,4]triazin-4(3H)-one level at 3 mg/kg, po qd at 20 hrs; type: ADME, organism-based; settings: in vivo, read-out: Drug uptake
Rattus norvegicus [15] = assay: Antiobesity activity in Sprague-Dawley rat assessed as body weight reduction at 30 mg/kg, po qd after 4 days relative to control; type: functional; settings: 96 h
[16] = Ratio of free drug level in brain of Sprague-Dawley rat assessed as 6-(4-chlorophenyl)-3-(6-(4-hydroxypiperidin-1-yl)pyridin-3-yl)pyrrolo[1,2-f][1,2,4]triazin-4(3H)-one level at 3 mg/kg, po to Ki for rat MCHR1; type: ADME, organism-based; settings: in vivo
Brain [17] = assay: Drug concentration in Sprague-Dawley rat brain assessed as 6-(4-chlorophenyl)-3-(6-(4-hydroxypiperidin-1-yl)pyridin-3-yl)pyrrolo[1,2-f][1,2,4]triazin-4(3H)-one level at 10 mg/kg, po qd at 20 hrs; type: ADME, organism-based; settings: in vivo, read-out: Drug uptake
[18] = Ratio of free drug level in brain of Sprague-Dawley rat assessed as 6-(4-chlorophenyl)-3-(6-(4-hydroxypiperidin-1-yl)pyridin-3-yl)pyrrolo[1,2-f][1,2,4]triazin-4(3H)-one level at 10 mg/kg, po to Ki for rat MCHR1; type: ADME, organism-based; settings: in vivo
Brain [19] = assay: Free drug level in Sprague-Dawley rat brain assessed as 6-(4-chlorophenyl)-3-(6-(4-hydroxypiperidin-1-yl)pyridin-3-yl)pyrrolo[1,2-f][1,2,4]triazin-4(3H)-one level at 10 mg/kg, po qd at 20 hrs; type: ADME, organism-based; settings: in vivo

Row | Drug metabolism (Rattus norvegicus [2]) | Fu (Plasma [3]) | Drug metabolism (Rattus norvegicus [4]) | Drug uptake(free) (Brain [6]) | Ratio [7] | Drug uptake(free) (Brain [8]) | Fu (Plasma [10]) | Drug uptake(free) (Brain [11]) | concentration (Brain [12]) | Ratio [13] | concentration (Brain [14]) | Ratio [16] | concentration (Brain [17]) | Ratio [18] | Drug uptake(free) (Brain [19]) | SMILES | Activity (Rattus norvegicus [1]) | inhibition in vivo at 10 mg/kg (Rattus norvegicus [5]) | inhibition in vivo at 3 mg/kg (Rattus norvegicus [9]) | inhibition in vivo at 30 mg/kg (Rattus norvegicus [15])
1 |  |  |  |  |  |  |  |  |  |  |  |  |  |  |  | COc1cc(-n2cnc3cc(-c4ccc(Cl)cc4)sc3c2=O)ccc1OCC(C)O (stereo not given) | Toxic |  |  | 
2 | metabolite_detected | 0.7% | metabolite_detected | 11.3 nM | 1.6 |  |  |  |  |  |  |  |  |  |  | COc1cc(-n2cnc3cc(-c4ccc(Cl)cc4)sc3c2=O)ccc1OCC(C)(C)OC(=O)CN |  | 6.9% |  | 
3 |  |  |  |  |  | < 3.9 nM | < 0.2% | < 30 nM | 15.1 µM | < 1.7 | 1.97 µM | < 0.2 | 10.1 µM | < 1.1 | < 20 nM | CC(C)[C@H](N)C(=O)OC1CCN(c2ccc(-n3cnn4cc(-c5ccc(Cl)cc5)cc4c3=O)cn2)CC1 |  | 1.3% | 1.3% | 2.6%
